From US9458203B2, “Integrin-blocking polypeptides and uses thereof” (priority 2011, dated 2016)
Several values for one entry are separate records, joined by “and”; a condition that tells them apart may be missing. Equal values may be shown once. Read-outs that look alike come from different tables or passages of the source. Ends that are not written are not given here.

Legend:
[1] = assay type: in vivo, nude mice; conditions: mouse, in vivo
Description: (§1) The total medication period was 14 days.

[2] = test system: human testicular cancer 5637; assay type: in vivo, nude mice; conditions: for toxic and side effects, in words: mouse, in vivo
Description: as §1

[3] = test system: sarcoma HT-1080; assay type: in vivo, nude mice; conditions: for body weight of animals, in words / toxic and side effects, in words / final weight: mouse, in vivo
Description: as §1

[4] = test system: human cervical cancer HeLa; assay type: in vivo, nude mice
Description: (§2) Taking a certain amount of vigorously growing tumor tissue, grinding the tumor tissue under sterile conditions and preparing cell suspension at the concentration of 1×10^7 cells/ml; then hypodermicaly inoculating 0.1 ml of the cell suspension into the right axillary region of nude mice. Keeping measuring the diameter of the transplanted tumor with a vernier caliper, and randomly dividing the mice into groups when the volume of the tumor reached 100-200 mm^3. […] Measuring the tumor diameter once every other day and recording the body weight of mice simultaneously. Intravenously injecting polypeptides to mice from test groups while administering equal quantity of physiological saline to mice from the negative control group. The total medication period was 14 days. Avastin was adopted to set up a positive control group; it was administered through the tail vein once every three days while all other drugs were administered through the tail vein once a day. Leaving mice for a one-week rest after 14 days' medication, then (21 days after medication) killing the mice, surgically dissecting the tumors and measuring the weight of tumors. The tumor volume (TV) was calculated in accordance with the following formula: TV=½×a×b^2

[5] = test system: human prostate cancer DU-145; assay type: in vivo, nude mice
Description: as §2

[6] = test system: human colon cancer HT-29; assay type: in vivo, nude mice
Description: as §2

[7] = test system: human thyroid cancer SW-579; assay type: in vivo, nude mice
Description: as §2

[8] = test system: human renal cancer A498; assay type: in vivo, nude mice
Description: as §2

[9] = test system: human ovarian cancer SK-OV-3; assay type: in vivo, nude mice
Description: as §2

[10] = test system: melanoma B16F10; test: transplanted melanoma B16F10 in C57BL/6 black mice
Description: Hypodermically injecting polypeptides and other drugs into the left axillary region of mice from the experimental groups respectively while administering only equal quantity of physiological saline to the mice from the negative control group. The total medication period was 14 days, during which cyclophosphamide was administered once every other day, taxol once every three days, low-dose polypeptide twice a day and all other drugs once a day.

[11] = test system: human esophageal cancer Ec109; assay type: in vivo, nude mice
Description: as §1

[12] = test system: human bladder cancer HT1376; test: heterotransplanted human bladder cancer HT1376 in nude mice; assay type: in vivo
Description: as §1

[13] = test system: human pancreatic cancer SW-1990; test: heterotransplanted human pancreatic cancer SW-1990 in nude mice; assay type: in vivo
Description: as §1

[14] = test system: human laryngeal cancer Hep-2; test: heterotransplanted human laryngeal cancer Hep-2 in nude mice; assay type: in vivo
Description: as §1

[15] = test system: human breast cancer MDA-MB-231; conditions: mouse, in vivo
Description: (§3) Taking a certain amount of vigorously growing tumor tissue, grinding the tumor tissue under sterile conditions and preparing cell suspension at the concentration of 1×10^7 cells/ml; then hypodermicaly inoculating 0.1 ml of the cell suspension into the right axillary region of nude mice. Keeping measuring the diameter of the transplanted tumor with a vernier caliper, and randomly dividing the mice into groups when the volume of the tumor reached 100-200 mm^3. Observing the dynamic effect of integrin-blocking polypeptides on inhibiting the growth of the tumor by means of documenting the change of tumor diameters. Measuring the tumor diameter once every other day and recording the body weight of mice simultaneously. Intravenously injecting polypeptides to mice from test groups while administering equal quantity of physiological saline to mice from the negative control group. The total medication period was 14 days. Avastin was adopted to set up a positive control group; it was administered through the tail vein once every three days while all other drugs were administered through the tail vein once a day. Leaving mice for a one-week rest after 14 days' medication, then (21 days after medication) killing the mice, surgically dissecting the tumors and measuring the weight of tumors. The tumor volume (TV) was calculated in accordance with the following formula: TV=½×a×b^2
(§4) wherein a, b refer to the length and width of the tumor respectively.
(§5) The relative tumor volume (RTV) can be calculated in accordance with the results of measurement, using the formula: RTV=Vt/V0, wherein V0 refers to the initial tumor volume measured on the date starting medication (namely d0) while Vt the tumor volume obtained through every measurement. The anti-tumor activity was evaluated by relative proliferation rate T/C (%), which was calculated in accordance with the following formula:
(§6) wherein TRTV refers to the RTV of experimental groups; CRTV refers to the RTV of the negative control group.

[16] = test system: human gastric cancer MGC-803; conditions: mouse, in vivo
Description: Keeping measuring the diameter of the transplanted tumor with a vernier caliper, and randomly dividing the mice into groups when the volume of the tumor reached 100-200 mm^3. Observing the dynamic effect of integrin-blocking polypeptides on inhibiting the growth of the tumor by means of documenting the change of tumor diameters. Measuring the tumor diameter once every other day and recording the body weight of mice simultaneously. Intravenously injecting polypeptides to mice from test groups while administering equal quantity of physiological saline to mice from the negative control group. The total medication period was 14 days. Avastin was adopted to set up a positive control group; it was administered through the tail vein once every three days while all other drugs were administered through the tail vein once a day. Leaving mice for a one-week rest after 14 days' medication, then (21 days after medication) killing the mice, surgically dissecting the tumors and measuring the weight of tumors. The tumor volume (TV) was calculated in accordance with the following formula: TV=½×a×b^2

[17] = test system: human lung cancer H460; conditions: mouse, in vivo
Description: as §3
(§7) Taxol used in the positive control group was administered once every 3 days through tail vein injection, while drugs of all other groups were administered on daily basis through tail vein injection.

[18] = test system: human liver cancer SMMC-7721; conditions: mouse, in vivo
Description: as §3, §7

[19] = test system: human endometrial cancer HHUA; conditions: mouse, in vivo
[20] = test system: human gallbladder cancer GBC-SD; conditions: mouse, in vivo
Description: as §3
(§8) Avastin used in the positive control group was administered once every 2 days through tail vein injection, while drugs of all other groups were administered on daily basis through tail vein injection.

[21] = test system: human brain tumor SF763; conditions: mouse, in vivo
Description: as §3, §7

[22] = test system: human rectal cancer Colo 320; conditions: mouse, in vivo
[23] = test system: human breast cancer MDA-MB-231; test: heterotransplanted human breast cancer MDA-MB-231 in nude mice; conditions: 10 mg/kg/time, tail vein once every three days
Description: as §3, §4, §5, §6

[24] = test system: human gallbladder cancer GBC-SD; test: heterotransplanted human gallbladder cancer GBC-SD in nude mice
Description: as §3, §8

[25] = 10 mg/kg/time, once every 3 days, tail vein injection
[26] = 5-FU 10 mg/kg/time, once every 3 days, tail vein injection
[27] = positive control, tail vein once every 3 days
[28] = 10 mg/kg/time, tail vein once every 3 days
[29] = 5 mg/kg/time (as printed in Table 29), once every 3 days, tail vein injection
[30] = cisplatin 10 mg/kg/time, once every 3 days, tail vein injection
[31] = 15 mg/kg/time once every other day, hypodermic, 14 days
[32] = avastin 10 mg/kg/time, once every 3 days, tail vein injection
[33] = 10 mg/kg/time, once every 2 days, tail vein injection

Molecule: O=c1[nH]cc(F)c(=O)[nH]1 [5-FU, 5-fluorouracil, reference compound]
- body weight of animals, in words [1]: greatly reduced the body weight
- tumor inhibition rate [2, 25]: 77.80%
- tumor weight [2, 25]: 0.28 ± 0.06 g
- toxic and side effects, in words [2]: more apparent toxic and side effects
- inhibition rate on tumor ([2]; tail vein once every 3 days): 77.80% and 73.84%
- tumor inhibition rate [3, 26]: 78.10%
- tumor weight [3, 26]: 0.30 ± 0.07 g
- body weight of animals, in words [3]: greatly reduced the body weight
- toxic and side effects, in words [3]: more apparent toxic and side effects
- inhibition rate on tumor [3, 27]: 78.10%

Molecule: N.N.[Cl][Pt][Cl] [cisplatin, reference compound]
- tumor inhibition rate [4, 28]: 73.13%
- tumor weight [4, 28]: 0.38 ± 0.10 g
- body weight of animals, in words ([4]; mouse, in vivo): greatly reduced the body weight
- tumor inhibition rate [5, 29]: 73.84%
- tumor weight [5, 29]: 0.37 ± 0.10 g
- tumor inhibition rate [5, 25]: 73.84%
- tumor weight [5, 25]: 0.37 ± 0.10 g
- tumor inhibition rate [5, 28]: 73.84%
- tumor weight [5, 28]: 0.37 ± 0.10 g
- body weight of animals, in words ([5]; mouse, in vivo): greatly reduced the body weight
- tumor inhibition rate [6, 25]: 79.17%
- tumor weight [6, 25]: 0.30 ± 0.05 g
- body weight of animals, in words ([6]; mouse, in vivo): greatly reduced the body weight
- inhibition rate on tumor [6, 27]: 79.17%
- tumor inhibition rate [7, 25]: 74.09%
- tumor weight [7, 25]: 0.34 ± 0.07 g
- body weight of animals, in words ([7]; mouse, in vivo): greatly reduced the body weight
- inhibition rate on tumor [7, 27]: 74.09%
- tumor inhibition rate [8, 25]: 79.83%
- tumor weight [8, 25]: 0.25 ± 0.06 g
- body weight of animals, in words ([8]; mouse, in vivo): greatly reduced the body weight
- inhibition rate on tumor [8, 27]: 79.83%
- tumor inhibition rate [9, 30]: 78.36%
- tumor weight [9, 30]: 0.29 ± 0.06 g
- body weight of animals, in words ([9]; mouse, in vivo): greatly reduced the body weight
- inhibition rate on tumor [9, 27]: 78.36%

Molecule: O=P1(N(CCCl)CCCl)NCCCO1 (stereo not shown) [cyclophosphamide]
- final weight [10, 31]: 17.3 ± 1.5 g
- tumor inhibition rate [10, 31]: 64.95%
- tumor weight [10, 31]: 1.40 ± 0.06 g

Molecule: FQPVLHLVALNSPLSGGMRGIRGADFQCFQQARAVGLAGTFRAGGGGRGD [polypeptide III]
- body weight of animals, in words ([10]; mouse, in vivo): no severe weight change
- toxic and side effects, in words ([10]; mouse, in vivo): no severe weight change or obvious toxic and side effects
- body weight of animals, in words ([4]; mouse, in vivo): no significant change in body weight
- toxic and side effects, in words ([4]; mouse, in vivo): no obvious toxic and side effects
- body weight of animals, in words ([5]; mouse, in vivo): no significant change in body weight
- toxic and side effects, in words ([5]; mouse, in vivo): no obvious toxic and side effects
- body weight of animals, in words [1]: no significant change in body weight
- body weight of animals, in words ([11]; mouse, in vivo): no significant change in body weight
- toxic and side effects, in words ([11]; mouse, in vivo): no obvious toxic and side effects
- toxic and side effects, in words [2]: no obvious toxic and side effects
- body weight of animals, in words [3]: no significant change in body weight
- toxic and side effects, in words [3]: no obvious toxic and side effects
- final weight ([3]; 0.1875 mg/kg): 22.92 ± 0.57 g
- final weight ([3]; 0.375 mg/kg): 23.18 ± 0.57 g
- final weight ([3]; 0.75 mg/kg): 23.07 ± 0.56 g
- body weight of animals, in words ([12]; mouse, in vivo): no significant change in body weight
- toxic and side effects, in words ([12]; mouse, in vivo): no obvious toxic and side effects
- body weight of animals, in words ([13]; mouse, in vivo): no significant change in body weight
- toxic and side effects, in words ([13]; mouse, in vivo): no obvious toxic and side effects
- body weight of animals, in words ([6]; mouse, in vivo): no significant change in body weight
- toxic and side effects, in words ([6]; mouse, in vivo): no obvious toxic and side effects
- body weight of animals, in words ([7]; mouse, in vivo): no significant change in body weight
- toxic and side effects, in words ([7]; mouse, in vivo): no obvious toxic and side effects
- body weight of animals, in words ([8]; mouse, in vivo): no significant change in body weight
- toxic and side effects, in words ([8]; mouse, in vivo): no obvious toxic and side effects
- body weight of animals, in words ([9]; mouse, in vivo): no significant change in body weight
- toxic and side effects, in words ([9]; mouse, in vivo): no obvious toxic and side effects
- final weight ([9]; mouse, in vivo, 0.1875 mg/kg): 22.83 ± 0.50 g
- final weight ([9]; mouse, in vivo, 0.375 mg/kg): 22.92 ± 0.70 g
- final weight ([9]; mouse, in vivo, 0.75 mg/kg): 22.95 ± 0.64 g
- body weight of animals, in words ([14]; mouse, in vivo): no significant change in body weight
- toxic and side effects, in words ([14]; mouse, in vivo): no obvious toxic and side effects
- final weight ([14]; mouse, in vivo, 0.1875 mg/kg): 22.94 ± 0.46 g
- final weight ([14]; mouse, in vivo, 0.375 mg/kg): 22.96 ± 0.57 g
- final weight ([14]; mouse, in vivo, 0.75 mg/kg): 23.18 ± 0.51 g
- body weight of animals, in words [15]: no significant change in body weight
- toxic and side effects, in words [15]: no obvious toxic and side effects
- body weight of animals, in words [16]: no significant change in body weight
- toxic and side effects, in words [16]: no obvious toxic and side effects
- body weight of animals, in words [17]: no significant change in body weight
- toxic and side effects, in words [17]: no obvious toxic and side effects
- body weight of animals, in words [18]: no significant change in body weight
- toxic and side effects, in words [18]: no obvious toxic and side effects
- body weight of animals, in words [19]: no significant change in body weight
- toxic and side effects, in words [19]: no obvious toxic and side effects
- body weight of animals, in words [20]: no significant change in body weight
- toxic and side effects, in words [20]: no obvious toxic and side effects
- body weight of animals, in words [21]: no significant change in body weight
- toxic and side effects, in words [21]: no obvious toxic and side effects
- final weight ([21]; 0.1875 mg/kg): 23.31 ± 0.57 g
- final weight ([21]; 0.375 mg/kg): 23.37 ± 0.56 g
- final weight ([21]; 0.75 mg/kg): 23.09 ± 0.53 g
- body weight of animals, in words [22]: no significant change in body weight
- toxic and side effects, in words [22]: no obvious toxic and side effects
- final weight ([22]; 0.1875 mg/kg): 22.81 ± 0.60 g
- final weight ([22]; 0.375 mg/kg): 22.93 ± 0.56 g
- final weight ([22]; 0.75 mg/kg): 23.14 ± 0.48 g

Molecule: avastin: Avastin was adopted to set up a positive control group [reference compound]
- tumor inhibition rate [11, 25]: 69.00%
- tumor weight [11, 25]: 0.47 ± 0.10 g
- body weight of animals, in words ([11]; mouse, in vivo): no significant change
- inhibition rate on tumor [11, 27]: 69.00%
- tumor inhibition rate [12, 25]: 79.60%
- tumor weight [12, 25]: 0.24 ± 0.06 g
- body weight of animals, in words ([12]; mouse, in vivo): no significant change
- inhibition rate on tumor [12, 27]: 79.60%
- tumor inhibition rate [13, 25]: 79.07%
- tumor weight [13, 25]: 0.27 ± 0.07 g
- body weight of animals, in words ([13]; mouse, in vivo): no significant change
- inhibition rate on tumor [13, 27]: 79.07%
- tumor inhibition rate [14, 32]: 76.79%
- tumor weight [14, 32]: 0.26 ± 0.06 g
- body weight of animals, in words ([14]; mouse, in vivo): no significant change
- inhibition rate on tumor [14, 27]: 76.79%
- body weight of animals, in words [15]: no obvious change
- body weight of animals, in words [20]: no significant change
- tumor weight [23]: 0.26 ± 0.08 g
- tumor inhibition rate [24, 33]: 78.85%
- tumor weight [24, 33]: 0.25 ± 0.06 g
- inhibition rate on tumor ([24]; positive control, tail vein once every 2 days): 78.85%
